This note sets out measurements from patent US10413545B2, “Imidazolin-5-one derivative useful as FASN inhibitors for the treatment of cancer” (Janssen Pharmaceutica NV, priority 2013, dated 2019).

The assay has as its system A2780 ovarian cells. The experiment in a line: A2780 Ovarian Cell Proliferation Assay in Lipid Reduced Medium, with and without Palmitate (MTT). The assay is classed as cell-based. The conditions noted are these: Homo sapiens, 10% lipid-reduced serum, 96 h. As to the method:
The biological assays described below correspond to comparative assays for ovarian cell proliferation.
2500 cells were seeded in a 96-well clear well plate in 200 μL RPM11640 with 10% Fetal Calf Serum (Hyclone), and incubated at 37° C., 5% CO2, Blanks were wells without cells. The next day the culture medium was aspirated and replaced by 160 μL culture medium with 10% Lipid-Reduced Serum (LRS, Hyclone). […] After 96 h incubation, an MTT assay was performed.
2500 cells were seeded in a 96-well clear well plate in 200 μL RPM11640 with 10% Fetal Calf Serum (Hyclone), and incubated at 37° C., 5% CO2. Blanks were wells without cells. The next day the culture medium was aspirated and replaced by 160 μL culture medium with 10% Lipid-Reduced Serum (LRS, Hyclone). 20 μL test compound (at concentrations of 30 μM, 10 μM, 3 μM, 1 μM, 0.30 μM, 0.10 μM, 0.03 μM and 0.01 μM)/DMSO dilution followed by 20 μL ethanol-BSA solution were added to a final concentrations of 0.2% DMSO, 0.2% fatty-acid-free BSA, 0.25% ethanol. After 96 h incubation an MTT assay was performed.
Raw data generated by the instrument were normalized to % Controlmin values, which were calculated as: % Controlmin=100*(x−mLC)/(mHC−mLC)
where mLC and mHC were the means of the low control wells and high control wells on the plate, after manual exclusion of outliers. A plot of Controlmin versus test compound concentration was fitted to a 4-parameter logistic curve using a non-linear least squares regression method.

The mark [1] stands for this setting: 25 μM palmitate added (control), read-out: pIC50 With Palmitate (converted).
[2] abbreviates: no palmitate, read-out: pIC50 Without Palmitate (converted).

Where two headings read alike, the source gives them in different places. Some results are limits rather than exact numbers.

Consider `CC1(C)N=C(c2ccc(-c3ccc4[nH]ccc4c3)cc2)N(C[C@@H]2CCN(C(=O)C3CC3)C2)C1=O` [Compound 1, (R)-2-(4-(1H-Indol-5-yl)phenyl)-1-((1-(cyclopropanecarbonyl)pyrrolidin-3-yl)methyl)-4,4-dimethyl-1H-imidazol-5(4H)-one], for which the IC50 runs as follows: under setting [1], over 10000 nM; under setting [2], 74.1 nM.

Regarding `Cn1ncc2cc(-c3ccc(C4=NC(C)(C)C(=O)N4C[C@@H]4CCN(C(=O)C5CC5)C4)cc3)ccc21` [Compound 2, (R)-1-((1-(cyclopropanecarbonyl)pyrrolidin-3-yl)methyl)-4,4-dimethyl-2-(4-(1-methyl-1H-indazol-5-yl)phenyl)-1H-imidazol-5(4H)-one], the IC50 was over 10000 nM under setting [1] and 525 nM under setting [2].

Take `CC1(C)N=C(c2ccc(-c3ccc4occc4c3)cc2)N(C[C@@H]2CCN(C(=O)C3CC3)C2)C1=O` [Compound 3, (R)-2-(4-(benzofuran-5-yl)phenyl)-1-((1-(cyclopropanecarbonyl)pyrrolidin-3-yl)methyl)-4,4-dimethyl-1H-imidazol-5(4H)-one]: the IC50 is, setting by setting: under setting [1], over 10000 nM; under setting [2], 1480 nM.

As for `CC1(C)N=C(c2ccc(-c3ccc4occc4c3)cc2)N(C[C@@H]2CCN(C(=O)C3(F)CC3)C2)C1=O` [Compound 4, (R)-2-(4-(benzofuran-5-yl)phenyl)-1-((1-(1-fluorocyclopropanecarbonyl)pyrrolidin-3-yl)methyl)-4,4-dimethyl-1H-imidazol-5(4H)-one], the IC50 under setting [1] was over 10000 nM and the IC50 under setting [2] was 2750 nM.

On to `CC1(C)N=C(c2ccc(-c3ccc4ncccc4c3)cc2)N(C[C@@H]2CCN(C(=O)C3CC3)C2)C1=O` [Compound 64, (R)-1-((1-(cyclopropanecarbonyl)pyrrolidin-3-yl)methyl)-4,4-dimethyl-2-(4-(quinolin-6-yl)phenyl)-1H-imidazol-5(4H)-one], for which the IC50 reads like this: under setting [1], over 10000 nM; under setting [2], 4470 nM.

For the compound `CC1(C(=O)N2CC[C@@H](CN3C(=O)C(C)(C)N=C3c3ccc(-c4ccc5cc(F)ccc5c4)cc3F)C2)CC1` [Compound 75, (R)-2-(2-fluoro-4-(6-fluoronaphthalen-2-yl)phenyl)-4,4-dimethyl-1-((1-(1-methylcyclopropanecarbonyl)pyrrolidin-3-yl)methyl)-1H-imidazol-5(4H)-one], the IC50 under setting [1] is 3310 nM and the IC50 under setting [2] is 11 nM.

Take `Cn1ncc2cc(-c3ccc(C4=NC(C)(C)C(=O)N4C[C@@H]4CCN(C(=O)C5(O)CC5)C4)c(F)c3)ccc21` [Compound 76, (R)-2-(2-fluoro-4-(1-methyl-1H-indazol-5-yl)phenyl)-1((1-(1-hydroxycyclopropanecarbonyl)pyrrolidin-3-yl)methyl)-4,4-dimethyl-1H-imidazol-5(4H)-one]: the IC50 reads like this: under setting [1], over 10000 nM; under setting [2], 23.4 nM.

In the case of `CC1(C)N=C(c2ccc(-c3ccc4cc(F)ccc4c3)cc2F)N(C[C@@H]2CCN(C(=O)C3(O)CC3)C2)C1=O` [Compound 88, (R)-2-(2-fluoro-4-(6-fluoronaphthalen-2-yl)phenyl)-1-((1-(1-hydroxycyclopropanecarbonyl)pyrrolidin-3-yl)methyl)-4,4-dimethyl-1H-imidazol-5(4H)-one], the IC50 runs as follows: under setting [1], over 10000 nM; under setting [2], about 14.8 nM.

In the case of `Cn1cnc2cc(-c3ccc(C4=NC(C)(C)C(=O)N4C[C@@H]4CCN(C(=O)C5(O)CC5)C4)c(F)c3)ccc21` [Compound 89, (R)-2-(2-fluoro-4-(1-methyl-1H-benzo[d]imidazol-5-yl)phenyl)-1-((1-(1-hydroxycyclopropanecarbonyl)pyrrolidin-3-yl)methyl)-4,4-dimethyl-1H-imidazol-5(4H)-one], the IC50 is over 10000 nM under setting [1] and 6.76 nM under setting [2].

In the case of `Cn1cnc2cc(-c3ccc(C4=NC(C)(C)C(=O)N4C[C@@H]4CCN(C(=O)C5(C)CC5)C4)c(F)c3)ccc21` [Compound 90, (R)-2-(2-fluoro-4-(1-methyl-1H-benzo[d]imidazol-5-yl)phenyl)-4,4-dimethyl-1-((1-(1-methylcyclopropanecarbonyl)pyrrolidin-3-yl)methyl)-1H-imidazol-5(4H)-one], the IC50 under setting [1] was over 10000 nM and the IC50 under setting [2] was about 2.95 nM.

As for `Cc1cc(-c2ccc3c(c2)ncn3C)ccc1C1=NC(C)(C)C(=O)N1CC1CN(C(=O)C2(O)CC2)C1` [Compound 91, 1-((1-(1-hydroxycyclopropanecarbonyl)azetidin-3-yl)methyl)-4,4-dimethyl-2-(2-methyl-4-(1-methyl-1H-benzo[d]imidazol-5-yl)phenyl)-1H-imidazol-5(4H)-one], the IC50 by setting is: under setting [1], over 10000 nM; under setting [2], 129 nM.

For the compound `Cc1cc(-c2ccc3c(c2)ncn3C)ccc1C1=NC(C)(C)C(=O)N1C[C@@H]1CCN(C(=O)C2(O)CC2)C1` [Compound 92, (R)-1-((1-(1-hydroxycyclopropanecarbonyl)pyrrolidin-3-yl)methyl)-4,4-dimethyl-2-(2-methyl-4-(1-methyl-1H-benzo[d]imidazol-5-yl)phenyl)-1H-imidazol-5(4H)-one], the IC50 reads like this: under setting [1], over 10000 nM; under setting [2], about 5.5 nM.

Take `Cn1cnc2cc(-c3ccc(C4=NC(C)(C)C(=O)N4CC4CN(C(=O)C5(C)CC5)C4)c(F)c3)ccc21` [Compound 93, 2-(2-fluoro-4-(1-methyl-1H-benzo[d]imidazol-5-yl)phenyl)-4,4-dimethyl-1-((1-(1-methylcyclopropanecarbonyl)azetidin-3-yl)methyl)-1H-imidazol-5(4H)-one]: the IC50 reads like this: under setting [1], over 10000 nM; under setting [2], 30.9 nM.

For the compound `Cn1cnc2cc(-c3ccc(C4=NC(C)(C)C(=O)N4CC4CN(C(=O)C5(O)CC5)C4)c(F)c3)ccc21` [Compound 94, 2-(2-fluoro-4-(1-methyl-1H-benzo[d]imidazol-5-yl)phenyl)-1-((1-(1-hydroxycyclopropanecarbonyl)azetidin-3-yl)methyl)-4,4-dimethyl-1H-imidazol-5(4H)-one], the IC50 was over 10000 nM under setting [1] and 100 nM under setting [2].

Consider `Cn1cc(-c2ccc(-c3ccc(C4=NC(C)(C)C(=O)N4C[C@@H]4CCN(C(=O)C5(O)CC5)C4)c(F)c3)cc2)cn1` [Compound 95, (R)-2-(3-fluoro-4′-(1-methyl-1H-pyrazol-4-yl)-[1,1′-biphenyl]-4-yl)-1-((1-(1-hydroxycyclopropanecarbonyl)pyrrolidin-3-yl)methyl)-4,4-dimethyl-1H-imidazol-6(4H)-one], for which the IC50 is, setting by setting: under setting [1], over 10000 nM; under setting [2], about 5.37 nM.

Turning to `Cc1cc(-c2ccc3cc(C#N)ccc3c2)ccc1C1=NC(C)(C)C(=O)N1CC1CN(C(=O)C2CC2)C1` [Compound 96, 6-(4-(1-((1-(cyclopropanecarbonyl)azetidin-3-yl)methyl)-4,4-dimethyl-5-oxo-4,5-dihydro-1H-imidazol-2-yl)-3-methylphenyl)-2-naphthonitrile], the IC50 is, setting by setting: under setting [1], over 10000 nM; under setting [2], about 22.4 nM.

With `CC1(C)N=C(c2ccc(-c3ccc4ncccc4c3)cc2)N(CC2CN(C(=O)C3CC3)C2)C1=O` [Compound 98, 1-((1-(cyclopropanecarbonyl)azetidin-3-yl)methyl)-4,4-dimethyl-2-(4-(quinolin-6-yl)phenyl)-1H-imidazol-5(4H)-one], the IC50 under setting [1] was over 10000 nM and the IC50 under setting [2] is over 10000 nM.

With `CC1(C)N=C(c2ccc(-c3n[nH]c4ccccc34)cc2)N(CC2CN(C(=O)C3CC3)C2)C1=O` [Compound 99, 2-(4-(1H-indazol-3-yl)phenyl)-1-((1-(cyclopropanecarbonyl)azetidin-3-yl)methyl)-4,4-dimethyl-1H-imidazol-5(4H)-one], the IC50 is, setting by setting: under setting [1], over 10000 nM; under setting [2], over 10000 nM.
